Converted amounts (≈) assume the structure as drawn. Starred links: 1 amine or outer side, 2 acyl side, 3 side chain; linkers in the order of their positions; H or OH if unused. Positions of bridges follow the written chain, without caps; N, C: chain ends. Non-standard residues stand in square brackets, D forms with d. Residues, ends and D or L forms follow the SMILES beside them. Chains are numbered I, II in the order given. Actinocin(1to9) = Cc1c2oc3c(C)ccc(C(=O)[*:2])c3nc-2c(C(=O)[*:1])c(N)c1=O; NMeV = CN[C@H](C(=O)O)C(C)C; Sar = CNCC(=O)O

In general, IC50 refers to the concentration that inhibits the measured activity by half. A low value points to greater potency in that assay.

Experiment [1] can be described thus: Cytotoxicity against human Hep3B cells after 3 days by methylene blue assay. The format is functional, cell-based, Hep 3B2. As to conditions: 72 h.
Experiment [2] relates to HeLa. Description: Cytotoxicity against human HeLa cells after 3 days by methylene blue assay. The format is functional, cell-based. As to conditions: 72 h.

For `CO[C@@]12[C@H](COC(N)=O)C3=C(C(=O)C(C)=C(N)C3=O)N1C[C@@H]1N[C@@H]12` [MITOMYCIN], the IC50 in experiment [1] and in experiment [2] was 0.01 µg/mL (≈ 0.0299 µM) throughout.

Regarding `CC(=O)O[C@H]1[C@@H]2[C@]3(OC(C)=O)CO[C@@H]3C[C@H](O)[C@@]2(C)[C@@H](OC(=O)c2ccccc2)[C@H](O)C2=C(C)[C@@H](O)C[C@]21C(C)(C)O` [TAXUMAIROL K], the IC50 in experiment [1] was found to be 40 µg/mL (≈ 68 µM); in experiment [2], 9.2 µg/mL (≈ 15.6 µM).

Turning to `Cc1c2oc3c(C)ccc(C(=O)N[C@@H]4C(=O)N[C@H](C(C)C)C(=O)N5CCC[C@H]5C(=O)N(C)CC(=O)N(C)[C@@H](C(C)C)C(=O)O[C@@H]4C)c3nc-2c(C(=O)N[C@@H]2C(=O)N[C@H](C(C)C)C(=O)N3CCC[C@H]3C(=O)N(C)CC(=O)N(C)[C@@H](C(C)C)C(=O)O[C@@H]2C)c(N)c1=O` [DACTINOMYCIN] (I: T[dV]P[Sar][NMeV] / II: T[dV]P[Sar][NMeV]; ester I:1-I:C, II:1-II:C; linker I:N-II:N via Actinocin(1to9)), the IC50 in experiment [1] and in experiment [2] was 0.01 µg/mL (≈ 0.00797 µM) in each case.

For the origin of these results see ChEMBL document CHEMBL1150912, “A new taxane diterpenoid from Taxus mairei” (J Nat Prod, 1998).
